In publication PMC8064320, “Modulation of Glycinergic Neurotransmission may Contribute to the Analgesic Effects of Propacetamol” (Biomolecules, 2021):

Experiments:
Experiment in all cases: two-electrode voltage clamp, agonist-induced current in oocytes
Format in all cases: cell-based
Conditions in all cases: read-out: Glycine Dose-Response Relationship / EC50, -50 mV, ND96 without Ca2+, pH 7.4, 21-23 °C
[1] = tested on: T1, GlyRα1
T1 construct: gene GLRA1; homomeric receptor (pentamer by known biology); plasmid pNKS2(GlyRα1); cRNA-injected Xenopus laevis oocytes
Text: two-electrode voltage clamp, agonist-induced current in oocytes on GlyRα1

[2] = tested on: T2, GlyRα2
T2 construct: gene GLRA2; subunit expressed individually (homopentamer by known biology); plasmid pNKS2(GlyRα2); cRNA-injected Xenopus laevis oocytes
Text: two-electrode voltage clamp, agonist-induced current in oocytes on GlyRα2

[3] = tested on: T3, GlyRα3
T3 construct: gene GLRA3; subunit expressed individually (homopentamer by known biology); plasmid pNKS2(GlyRα3); cRNA-injected Xenopus laevis oocytes
Text: two-electrode voltage clamp, agonist-induced current in oocytes on GlyRα3

NCC(=O)O [glycine]
EC50 [1]: 162 µM | EC50 [2]: 325 µM | EC50 [3]: 234 µM
